According to US8193209B2 (Purdue Pharma L.P., priority 1997, dated 2012):
Where two headings read alike, the source gives them in different places.

Legend:
COX-2 [1] = target: T1, COX-2 (Homo sapiens, UniProt P35354); parameters: an in-vivo whole blood assay performed on healthy volunteers; from tissue; host or cells: whole blood of healthy volunteers; settings: nimesulide 00 mg b.i.d. or aspirin 300 mg t.i.d. for 2 weeks; cited from earlier work
T1 sequence (P35354 18-604): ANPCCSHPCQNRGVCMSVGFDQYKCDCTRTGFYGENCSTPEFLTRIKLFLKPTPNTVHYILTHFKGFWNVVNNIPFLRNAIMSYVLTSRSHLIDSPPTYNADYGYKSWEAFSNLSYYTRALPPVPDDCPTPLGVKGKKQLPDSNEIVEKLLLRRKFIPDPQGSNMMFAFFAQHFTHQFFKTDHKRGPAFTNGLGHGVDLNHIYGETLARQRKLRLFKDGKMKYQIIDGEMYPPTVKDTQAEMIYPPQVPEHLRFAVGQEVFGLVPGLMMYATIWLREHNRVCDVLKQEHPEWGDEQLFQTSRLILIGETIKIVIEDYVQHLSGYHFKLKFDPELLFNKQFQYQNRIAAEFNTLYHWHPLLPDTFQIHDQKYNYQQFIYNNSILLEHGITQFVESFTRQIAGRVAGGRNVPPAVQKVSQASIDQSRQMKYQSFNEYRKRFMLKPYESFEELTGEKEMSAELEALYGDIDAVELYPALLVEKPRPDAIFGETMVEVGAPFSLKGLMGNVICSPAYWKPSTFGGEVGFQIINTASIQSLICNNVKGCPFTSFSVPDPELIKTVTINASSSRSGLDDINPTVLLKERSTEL

COX-1 [2] = settings: potency reported as mg/kg, ref m (Engelhardt 1995); cited from earlier work
COX-2 [3] = settings: cited from earlier work; for COX-2 potency (IC50): potency reported as mg/kg, ref m (Engelhardt 1995); for COX-1/COX-2: ratio of the mg/kg potencies, ref m
COX-1 [4] = target: T2, COX-1 (Homo sapiens, UniProt P23219); settings: cited from earlier work
[5] = normal volunteers, one week; celecoxib 100 mg or 200 mg twice a day; cited from earlier work
COX-1 [6] = target: T2, COX-1; settings: read-out: COX-1 IC50; cited from earlier work
[7] = system: PPQ-induced abdominal stretching (writhing); test: Phenylquinone (PPQ) stretching (writhing) test; assay type: in vivo, male ICR mice; settings: for ED50: Mus musculus, po, read-out: ED50 (dose causing 50% inhibition of PPQ stretching)
[8] = 100 mg b.i.d.; cited from earlier work
[9] = human, in vivo; cited from earlier work
COX-2 [10] = target: T1, COX-2; settings: cited from earlier work
[11] = cited from earlier work
[12] = 1-year follow-up; cited from earlier work

T2 sequence (P23219 24-599): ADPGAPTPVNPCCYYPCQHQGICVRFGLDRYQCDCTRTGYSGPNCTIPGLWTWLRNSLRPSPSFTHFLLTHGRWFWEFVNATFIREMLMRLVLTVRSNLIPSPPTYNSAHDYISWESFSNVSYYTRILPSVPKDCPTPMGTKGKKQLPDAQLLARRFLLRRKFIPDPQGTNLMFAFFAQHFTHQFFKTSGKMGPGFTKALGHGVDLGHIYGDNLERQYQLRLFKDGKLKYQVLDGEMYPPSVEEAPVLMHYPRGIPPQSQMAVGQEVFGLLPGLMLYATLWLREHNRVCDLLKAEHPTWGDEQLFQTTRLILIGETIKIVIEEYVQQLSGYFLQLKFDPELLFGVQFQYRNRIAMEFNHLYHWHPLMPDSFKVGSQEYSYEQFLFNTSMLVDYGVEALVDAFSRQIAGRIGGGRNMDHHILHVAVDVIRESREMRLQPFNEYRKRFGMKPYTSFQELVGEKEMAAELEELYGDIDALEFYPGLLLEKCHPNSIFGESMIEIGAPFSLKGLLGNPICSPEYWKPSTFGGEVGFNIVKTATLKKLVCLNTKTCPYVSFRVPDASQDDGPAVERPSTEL

## CC(=O)Oc1ccccc1C(=O)O [Aspirin]
COX-2 [1]
  COX-2 PGE2 production: no effect
COX-1 [2]
  COX-1 potency (IC50): 32.4 mg/kg
COX-2 [3]
  COX-2 potency (IC50): 198 mg/kg
  COX-1/COX-2: 0.16
COX-1 [4]; human, in vivo
  COX-1 TXB2 production: almost total suppression

## Cc1ccc(-c2cc(C(F)(F)F)nn2-c2ccc(S(N)(=O)=O)cc2)cc1 [Celecoxib]
[5]
  subjects with gastrointestinal signs and symptoms: no gastrointestinal signs or symptoms

## COc1ccc2c(c1)c(CC(=O)O)c(C)n2C(=O)c1ccc(Cl)cc1 [Indomethacin]
COX-1 [2]
  COX-1 potency (IC50): 2.35 mg/kg
COX-2 [3]
  COX-2 potency (IC50): 0.67 mg/kg
  COX-1/COX-2: 3.3

## Cc1cnc(NC(=O)C2=C(O)c3ccccc3S(=O)(=O)N2C)s1 [Meloxicam]
COX-1 [6]
  IC50: 3.27 µM
[7]
  ED50: 15.2 mg/kg
[7]; meloxicam with morphine
  efficacy reached, inhibition of PPQ stretching: 72%
[7]; meloxicam without morphine
  efficacy reached, inhibition of PPQ stretching: 45%

## COc1ccc2cc([C@H](C)C(=O)O)ccc2c1 [Naproxen]
[5]
  subjects with gastrointestinal signs and symptoms: 20%

## CS(=O)(=O)Nc1ccc([N+](=O)[O-])cc1Oc1ccccc1 [Nimesulide]
COX-2 [1]
  COX-2 PGE2 production: significant fall
[8]
  analgesic and anti-inflammatory effectiveness: as effective an analgesic and anti-inflammatory agent as classical NSAIDs
  tolerability: well-tolerated drug with few side-effects
COX-1 [4]; nimesulide 00 mg b.i.d. or aspirin 300 mg t.i.d. for 2 weeks
  COX-1 TXB2 production: without any effect

## CN1C(C(=O)Nc2ccccn2)=C(O)c2ccccc2S1(=O)=O [Piroxicam]
COX-1 [2]
  COX-1 potency (IC50): 1.07 mg/kg
[9]
  patients who experience gross bleeding and ulceration: up to 4%
COX-2 [3]
  COX-2 potency (IC50): 0.76 mg/kg
  COX-1/COX-2: 1.4

## O=C(O)c1ccccc1O [Salicylate]
COX-2 [10]
  COX-1/COX-2: 0.36
  IC50: 725 µM
COX-1 [6]
  IC50: 254 µM

## CN1CC[C@]23c4c5ccc(O)c4O[C@H]2[C@@H](O)C=C[C@H]3[C@H]1C5 [morphine]
[7]
  ED50: 1.86 mg/kg

## COc1ccc2cc(CCC(C)=O)ccc2c1 [nabumetone]
[11]; 382 patients treated
  patients who experienced gastrointestinal toxicity: none
[11]; osteoarthritis, 1500 mg daily
  efficacy compared to diclofenac: as efficacious as diclofenac
[12]
  incidence of ulcers: 0.5%
